In patent US20090297624A1, “ARSENIC THERAPY FOR AUTOIMMUNE AND/OR INFLAMMATORY DISEASES IN MICE AND HUMANS” (CENTRE NATIONALE DE LA RECHERCHE SCIENTIFIQUE (CNRS), priority 2002, published 2009):
Values joined by “and” are separate entries in the source; they are usually repeats but may differ in a detail not shown here. Identical values can stand only once.

Assays:
MRL+/+→MRL+/+ chimeras = assay: As2O3 treatment of control MRL+/+→MRL+/+ chimeras; type: in vivo, mouse; details: serum ELISA
Method: (§1) Hematopoietic chimeras. Spleen and bone marrow cells from MRL/lpr were injected i.v. into MRL+/+ lethally irradiated (1000 cGy) in a ^137Cesium irradiator (MRL/Lpr→MRL+/+ chimeras). The control group consisted of irradiated MRL+/+ grafted with MRL+/+ cells (MRL+/+→MRL+/+ chimeras). All mice used in this graft protocol were sex matched.
(§2) MRL/Lpr→MRL+/+ and MRL+/+→MRL+/+ chimeras were injected i.p. daily with 2.5, 5, 7.5, 10 or 15 μg/g body weight of As2O3; controls received a daily i.p. injection of PBS (volume weight-determined). Treatments were initiated one week post-grafting.
(§3) Serum levels of IFN-α, IFN-γ, soluble FasL, IL-18, TNF-α were assayed using the Mouse Interferon-alpha (PBL Biomedical laboratories, New Jersey, USA), the Mouse Interferon-gamma ELISA Ready-SET-Go (eBioscience, San Diego, Calif.), Mouse Fas Ligand Immunossay (Quantikine M kit; R&D systems, Minneapolis, Minn.), Mouse IL-18 ELISA (R&D Systems), Mouse TNF-α Immunoassay (R&D systems), respectively, following the manufacturer's instructions.

MRL/lpr→MRL+/+ chimeras = assay: As2O3 treatment of MRL/lpr→MRL+/+ chimeras (GVH reaction); type: in vivo, mouse
Method: In addition, lethally irradiated MRL+/+ mice had their bone marrow reconstituted with bone marrow from MRL/lpr mice (MRL/lpr→MRL+/+ chimeras) or with bone marrow from MRL+/+ mice (MRL+/+→MRL+/+ chimeras) as a control. After reconstitution, the chimeras are treated with arsenic or are not treated. While 100% of the untreated MRL/lpr→MRL+/+ chimeras died of a graft-versus-host (GvH) reaction two weeks after the transplant, the chimeras treated with arsenic were alive. The arsenic is therefore effective against GvH and makes it possible to spectacularly increase the survival of the animals.
as §1, §2
Blood samples were collected at different times after grafting and glutamic-oxaloacetic transaminase (GOT) and glutamic-pyruvic transaminase (GPT) levels were measured (IU/l).
as §3
Serum levels of nitrite were measured using the Nitric Oxide quantification kit (Active Motif, Rixensart, Belgium), according to the manufacturer's instructions (data not shown).

MRL/lpr mouse [1] = assay: Curative arsenic (As2O3) treatment of MRL/lpr autoimmune mice; type: in vivo
Text: The inventors have studied mice referred to as MRL mice homozygous for the lpr mutation (MRL/lpr). Lymphoproliferation (lpr) results in an accumulation of activated T lymphocytes, of phenotype CD4^+CD8^− or CD4^−CD8^+ which have escaped the process of negative regulation via the apoptotic pathway. Thus, in MRL/lpr mice, hypertrophy of lymph nodes occurs, the mass of which is 100 times greater than that of the lymph nodes of MRL+/+mice, which are congenic for the lpr gene, and a spleen whose size is multiplied by 7 and a thymus whose weight, at the 22nd week, is double that of the MRL+/+ mice are observed. These activated T lymphocytes which accumulate will gradually repress the expression of their CD4 or CD8 receptors and become double-negative T lymphocytes having the phenotype: TCRαβCD4^−CD8^−B220^+, which will be responsible for the lymphoproliferation.
The MRL/lpr mouse is in particular a spontaneous model of autoimmune diseases such as disseminated lupus erythematosus with the presence of erythematous lesions of the skin and of rheumatoid arthritis. […] These mice produce, as they age, a large quantity of autoantibodies which are responsible for a lethal glomerulonephritis due to immunocomplex deposits in the glomeruli of the kidney. Thus, the lifespan of the MRL/lpr mouse is considerably shortened compared with that of the MRL+/+ mouse: ˜4-5 months in the MRL/lpr mouse compared with ˜2 years in the MRL+/+ mouse.
(§4) Initially, the inventors determined the optimum dose of arsenic (As2O3) to be injected into the MRL/lpr mice. Two concentrations were chosen: 1 and 5 μg of As2O3/g of mouse. At date T0, these injections were given daily. […] Knowing that the MRL/lpr autoimmune mice die, on average, after 4 to 5 months, compared with the normal MRL+/+ mice which die after ˜2 years, the inventors decided to conserve, for the subsequent treatments, only the dose of 5 μg/g of mice.
From the end of the first week of treatment, the inventors formed 5 groups of animals: • b 1st group, aimed at the curative treatment of an already present pathology, • 2nd group, aimed at preventing the appearance of pathologies, • 3rd group, aimed at determining the lifespan of the treated animals, • 4th group, aimed at determining the dose effect, • 5th group, aimed at evaluating the effect of stopping the treatment.
(§5) Each of the five groups has its controls consisting in injecting the dilution buffer for the arsenic. In addition, the animals present in the control and treated groups are derived from the same litter, which makes it possible to obtain reliable comparisons. At T0+5 months, more than 60 mice (MRL/lpr and MRL+/+) are undergoing treatment.
This study is aimed at the curative treatment of an already present pathology.
(§6) In parallel with these studies on the skin, other organs that are targets for autoimmune pathologies, such as the kidney, the lung, the liver, the eye, etc., were removed and analyzed by anatomopathology. In addition, these various organs, along with the spleen, the lymph nodes and the thymus, were weighed.
After 1 month and 20 days of treatment, a group of 3 control MRL/lpr mice and a group of 3 treated MRL/lpr mice were sacrificed in order to evaluate the effectiveness of the treatment on the lympho-proliferation. The organs analyzed were the thymus, the spleen and the lymph nodes. […] The phenotype of the lymphoid populations present in this spleen and this node was determined by flow cytometry. […] In addition, this cell population of abnormal phenotype is replaced with T lymphocytes of normal phenotype CD4^+CD8^− and CD4^−CD8^+ (FIG. 5). However, the level of reduction of the number of these double-negative T cells depends on the duration of the treatment. […]

MRL/lpr mouse [2] = assay: Preventive arsenic treatment of MRL/lpr mice; type: in vivo
Method: This study is aimed at preventing the appearance of the pathologies.
(§7) The aim of this group of animals, which was begun at T0, is to evaluate the preventive effect of an arsenic treatment on the development of the lymphoproliferation and of the autoimmune pathologies. To do this, 4 groups of animals 1.5 months old were formed. Two of these groups consist of MRL/lpr mice and the other two groups consist of MRL+/+ mice. One MRL/lpr group and one MRL+/+ group were treated with 5 μg of arsenic per gram of mouse, and the other two control groups were treated with the dilution buffer for the arsenic. At T0+1 month, animals from each group were sacrificed. The organs analyzed were the thymus, the spleen, the lymph nodes, the skin, the liver, the kidney and the heart. […] The arsenic therefore has a preventive effect on the development of the lymphoproliferation. The phenotype of the lymphoid populations present in this spleen and this node was determined by flow cytometry. As for the results for group 1, the arsenic makes it possible to eliminate the population of double-negative T cells which accumulate as the MRL/lpr mouse ages. In addition, the organs of these treated mice have a normal weight; there is therefore neither the lympho-proliferation nor the hepatomegaly that are observed in the control mice. The liver, the spleen, a lymph node, an eye, etc., were removed in order to be analyzed by anatomopathology.
It is desirable to determine very precisely the preventive and curative effect of various doses of arsenic on the evolution of the pathologies developed by the MRL/lpr mice. Five groups of animals (MRL/lpr and MRL+/+) were treated with the following concentrations: 2.5, 5, 7.5, 10 and 15 μg/g of mouse.

[3] = test system: NOD (non obese diabetic) mice; assay: Arsenic treatment of diabetic NOD mice, glucose in urine; type: in vivo, mouse; details: 5-month-old female NOD mice treated for 2 months
Method: 5-Month-old female NOD (non obese diabetic) mice, which were developing the first symptoms of diabetes, were treated for 2 months with arsenic. The evolution of the pathology was evaluated by measuring the amount of glucose in the urine.

MRL+/+ mouse = assay: Arsenic treatment of control MRL+/+ mice; type: in vivo
Method: as §4, §5, §6, §7

[4] = MRL/lpr mice treated with arsenic
[5] = MRL/lpr, treated with arsenic for two months, treatment then stopped for two months
[6] = end of the first month of treatment, 5 μg/g
[7] = preventive, 5 μg/g, at T0+1 month
[8] = MRL+/+ mice treated with arsenic

O=[As]O[As]=O (centres unmarked) [As2O3]
IFN-α synthesis (MRL+/+→MRL+/+ chimeras; FIG. 11A): not affected
TNF-α synthesis (MRL+/+→MRL+/+ chimeras; FIG. 11B): not affected
soluble and membrane-associated FasL levels (MRL/lpr→MRL+/+ chimeras; ELISA of sera and Western blotting of lymphoid cell lysates, FIG. 10A): sharply decreased
serum IFN-α level (MRL/lpr→MRL+/+ chimeras; ELISA, FIG. 11A): maintained normal cytokine concentrations
serum TNF-α level (MRL/lpr→MRL+/+ chimeras; ELISA, FIG. 11B): maintained normal cytokine concentrations
Transaminase levels (GOT) (MRL/lpr→MRL+/+ chimeras; FIG. 10B): normalised
level of other inflammatory cytokines and NO (MRL/lpr→MRL+/+ chimeras; data not shown): reduced
survival (MRL/lpr→MRL+/+ chimeras; male and female chimeras with established GVH reaction, P<0.001, FIG. 12): significantly prolonged survival
survival of chimeras (MRL/lpr→MRL+/+ chimeras; two weeks after the transplant): alive
curative effect (skin lesions, size of the nodes) (MRL/lpr mouse [1]; 2.5 μg/g of mouse): not sufficiently effective
lupus-specific skin lesions (MRL/lpr mouse [1]; 5 μg of As2O3/g of mouse daily, after one week of treatment): spectacular signs of improvement
skin lesions (MRL/lpr mouse [1]; 5 μg/g): complete disappearance of skin lesions
skin lesions (MRL/lpr mouse [1]; 7.5 μg/g): complete disappearance of skin lesions
skin lesions (MRL/lpr mouse [1]; 10 μg/g): complete disappearance of skin lesions
toxicity, curative treatment (MRL/lpr mouse [1]; 15 μg/g of mouse): lethal in a few days
immunocomplexes in the kidney (MRL/lpr mouse [1]; FIG. 7): absence of immunocomplexes in the kidney
infiltration of the kidney by cells of the immune system (MRL/lpr mouse [1]; FIG. 7): do not shown any infiltration
Organ weight, 2 lungs (MRL/lpr mouse [1]; [4]): 0.33 grams and 0.40 grams
Organ weight, axillary nodes (MRL/lpr mouse [1]; [4]): 0.01 grams and 0.02 grams
Organ weight, heart (MRL/lpr mouse [1]; [4]): 0.20 grams and 0.25 grams
Organ weight, kidney (MRL/lpr mouse [1]; [4]): 0.52 grams and 0.53 grams
Organ weight, liver (MRL/lpr mouse [1]; [4]): 2.58 grams and 2.89 grams
Organ weight, mesenteric nodes (MRL/lpr mouse [1]; [4]): 0.05 grams
Organ weight, spleen (MRL/lpr mouse [1]; [4]): 0.13 grams and 0.17 grams
Organ weight, 2 lungs (MRL/lpr mouse [1]; [5]): 0.51 grams and 0.50 grams
Organ weight, heart (MRL/lpr mouse [1]; [5]): 0.29 grams and 0.26 grams
Organ weight, kidney (MRL/lpr mouse [1]; [5]): 0.55 grams
Organ weight, liver (MRL/lpr mouse [1]; [5]): 3.21 grams and 3.12 grams
Organ weight, mesenteric nodes (MRL/lpr mouse [1]; [5]): 1.97 grams and 1.03 grams
size of the spleen and of a mesenteric node (MRL/lpr mouse [1]; after 1 month and 20 days of treatment, FIG. 4): spectacular decrease
population of double-negative T lymphocytes TCRαβCD4-CD8-B220+ (MRL/lpr mouse [1]; after 1 month and 20 days of treatment, flow cytometry of spleen and node): virtually complete elimination
survival (MRL/lpr mouse [1]; after 4 months, FIG. 9 legend): all the treated animals are alive
survival and signs of pathology (MRL/lpr mouse [1]; after 35 weeks of treatment, FIG. 9): still alive with no signs of lymphoproliferation or of autoimmune pathologies
pulmonary architecture, infiltration by lymphoid cells (MRL/lpr mouse [1]; anatomopathology, FIG. 3): normal pulmonary architecture
amount of cytokines (alpha-IFN, gamma-IFN, IL-18, TNF-alpha, soluble FasL) (MRL/lpr mouse [1]; compared with normal MRL+/+ mice, FIG. 6): returns the amount of cytokines to a normal level
exophthalmia (MRL/lpr mouse [1]; [6]): spectacular decrease
lupus-related skin lesions (MRL/lpr mouse [1]; [6]): complete disappearance
lowest effective dose (MRL/lpr mouse [1]; mouse): 5 µg/g
glomerulonephritis (MRL/lpr mouse [1]; mouse, in vivo): significant reduction
weight of lymph nodes, spleen and liver compared to MRL+/+ mouse (MRL/lpr mouse [1]; summary of table 1): returns the following organs to a normal weight
double-negative T cells (MRL/lpr mouse [1]; treatment of three months): eliminate all the double-negative T cells
pathologies after stopping treatment (MRL/lpr mouse [1]; treatment stopped for three months): reappearance of the lymphoproliferation and of the hepatomegaly
treated mice alive (MRL/lpr mouse [1]; very sick MRL/lpr mice, at T0+14 weeks): 100%
toxicity, preventive treatment (MRL/lpr mouse [2]; 15 μg/g of mouse): very toxic and the animals died after two months
non-lymphoid organs such as the heart or the kidney (MRL/lpr mouse [2]; [7]): not modified by the treatment
organ weight (lymphoproliferation, hepatomegaly) (MRL/lpr mouse [2]; [7]): normal weight
lymphoproliferation (MRL/lpr mouse [2]; preventive, 1.5 months old mice, 5 μg/g, at T0+1 month): virtually complete absence of the lymphoproliferation
glucose level in the urine [3]: normal glucose level in the urine
Organ weight, 2 lungs (MRL+/+ mouse; [8]): 0.32 grams and 0.30 grams
Organ weight, axillary nodes (MRL+/+ mouse; [8]): 0.01 grams
Organ weight, heart (MRL+/+ mouse; [8]): 0.22 grams
Organ weight, kidney (MRL+/+ mouse; [8]): 0.44 grams
Organ weight, liver (MRL+/+ mouse; [8]): 2.40 grams and 2.45 grams
Organ weight, mesenteric nodes (MRL+/+ mouse; [8]): 0.05 grams and 0.03 grams
Organ weight, spleen (MRL+/+ mouse; [8]): 0.10 grams and 0.15 grams
treatment-related pathologies (MRL+/+ mouse; MRL+/+ mice, 5 μg/g, at T0+5 months): no sign of treatment-related pathologies
